From ChEMBL document CHEMBL4311992, “Discovery of 3-(((9H-purin-6-yl)amino)methyl)-4,6-dimethylpyridin-2(1H)-one derivatives as novel tubulin polymerization inhibitors for treatment of cancer” (Eur J Med Chem, 2019)

Tests used:
[1] = molecular target: Mitogen-activated protein kinase kinase kinase 20 (Homo sapiens) (UniProt Q9NYL2); assay: Inhibition of recombinant full-length human ZAK assessed as residual activity at 10 uM using MBP as substrate measured after 40 mins in presence of [gamma33P]ATP by scintillation counting method
[2] = molecular target: Activin receptor type-2A (Homo sapiens) (UniProt P27037); assay: Inhibition of recombinant human ACTR2 (162 to end residues) assessed as residual activity at 10 uM using casein as substrate measured after 120 mins in presence of [gamma33P]ATP by scintillation counting method
[3] = Toxicity in nude BALB/c mouse assessed as change in RBC level at 40 to 80 mg/kg, po once daily for 4 weeks measured post-last dose; assay type: organism-based; conditions: in vivo, 672 h
[4] = molecular target: Homeodomain-interacting protein kinase 1 (Homo sapiens) (UniProt Q86Z02); assay: Inhibition of recombinant human activated HIPK1 (158 to 555 residues) assessed as residual activity at 10 uM using myelin basic protein as substrate measured after 40 mins in presence of [gamma33P]ATP by scintillation counting method
[5] = test system: Epidermal growth factor receptor (Homo sapiens), P00533 [L861Q]; assay: Inhibition of recombinant human EGFR L861Q mutant (696 to end residues) assessed as residual activity at 10 uM using poly(Glu, Tyr) 4:1 as substrate measured after 40 mins in presence of [gamma33P]ATP by scintillation counting method
Homo sapiens = species: Homo sapiens; assay: Inhibition of recombinant full-length human PI3K p120gamma R459Q mutant assessed as residual activity at 10 uM using phosphatidylinositol-4, 5-bisphosphate as substrate measured after 40 mins by fluorescence assay
[6] = molecular target: Myosin light chain kinase, smooth muscle (Homo sapiens) (UniProt Q15746); assay: Inhibition of recombinant human MLCK (1425 to 1771 residues) assessed as residual activity at 10 uM using calmodulin as substrate measured after 40 mins in presence of [gamma33P]ATP by scintillation counting method
[7] = molecular target: Ephrin type-B receptor 1 (Homo sapiens) (UniProt P54762); assay: Inhibition of recombinant human EphB1 (564 to end residues) assessed as residual activity at 10 uM using KVEKIGEGTYGVVYK as substrate measured after 40 mins in presence of [gamma33P]ATP by scintillation counting method
[8] = test system: Hepatocyte growth factor receptor (Homo sapiens), P08581 [D1228H]; assay: Inhibition of recombinant human MET A1209G/V1290L/D1246H mutant (974 to end residues) assessed as residual activity at 10 uM using KKKGQEEEYVFIE as substrate measured after 40 mins in presence of [gamma33P]ATP by scintillation counting method
[9] = molecular target: Serine/threonine-protein kinase ULK2 (Homo sapiens) (UniProt Q8IYT8); assay: Inhibition of human ULK2 (1 to 306 residues) using casein as substrate measured after 40 mins in presence of [gamma33P]ATP by scintillation counting method; design: scale not given: the % may be the effect or the level left
HCT-116 = assay: Induction of apoptosis in human HCT116 cells assessed as necrotic cells at 50 nM measured after 48 hrs by Annexin V-FITC/propidium iodide staining-based flow cytometry (reference value: 1.16%); assay type: functional
[10] = molecular target: Receptor-interacting serine/threonine-protein kinase 2 (Homo sapiens) (UniProt O43353); assay: Inhibition of human RIPK2 (1 to 299 residues) using myelin basic protein as substrate measured after 120 mins in presence of [gamma33P]ATP by scintillation counting method; design: scale not given: the % may be the effect or the level left
[11] = molecular target: Platelet-derived growth factor receptor beta (Homo sapiens) (UniProt P09619); assay: Inhibition of recombinant human PDGFRbeta (557 to end residues) assessed as residual activity at 10 uM using poly(Glu, Tyr) 4:1 as substrate measured after 40 mins in presence of [gamma33P]ATP by scintillation counting method
[12] = molecular target: CDC7/Cyclin B1 (Homo sapiens) (UniProt P14635+O00311); assay: Inhibition of recombinant full-length human CDC7/cyclinB1 assessed as residual activity at 10 uM using Histone H1 as substrate measured after 120 mins in presence of [gamma33P]ATP by scintillation counting method; assay type: protein-complex assay
[13] = molecular target: Dual specificity protein kinase CLK4 (Homo sapiens) (UniProt Q9HAZ1); assay: Inhibition of recombinant human CLK4 (128 to end residues) assessed as residual activity at 10 uM using YRRAAVPPSPSLSRHSSPHQS(p)EDEEE as substrate measured after 40 mins in presence of [gamma33P]ATP by scintillation counting method
[14] = molecular target: Wee1-like protein kinase 2 (Homo sapiens) (UniProt P0C1S8); assay: Inhibition of recombinant full-length human WEE1b assessed as residual activity at 10 uM using LSNLYHQGKFLQTFCGSPLYRRR as substrate measured after 120 mins in presence of [gamma33P]ATP by scintillation counting method
[15] = molecular target: Serine/threonine-protein kinase DCLK3 (Homo sapiens) (UniProt Q9C098); assay: Inhibition of recombinant human DCAMKL3 (345 to end residues) assessed as residual activity at 10 uM using KKLNRTLSFAEPG as substrate measured after 40 mins in presence of [gamma33P]ATP by scintillation counting method
[16] = molecular target: Serine/threonine-protein kinase ULK1 (Homo sapiens) (UniProt O75385); assay: Inhibition of human ULK1 (1 to 314 residues) using casein as substrate measured after 40 mins in presence of [gamma33P]ATP by scintillation counting method; design: scale not given: the % may be the effect or the level left
[17] = test system: Proto-oncogene tyrosine-protein kinase receptor Ret (Homo sapiens), P07949 [V804L]; assay: Inhibition of human Ret V804L mutant (658 to end residues) using KKKSPGEYVNIEFG as substrate measured after 40 mins in presence of [gamma33P]ATP by scintillation counting method; design: scale not given: the % may be the effect or the level left
[18] = molecular target: Dual specificity protein kinase CLK2 (Homo sapiens) (UniProt P49760); assay: Inhibition of recombinant human CLK2 (138 to end residues) assessed as residual activity at 10 uM using YRRAAVPPSPSLSRHSSPHQS(p)EDEEE as substrate measured after 40 mins in presence of [gamma33P]ATP by scintillation counting method
[19] = molecular target: [Pyruvate dehydrogenase (acetyl-transferring)] kinase isozyme 2, mitochondrial (Homo sapiens) (UniProt Q15119); assay: Inhibition of human PDHK2 assessed as residual activity at 10 uM by radiometric method
[20] = molecular target: Protein kinase C gamma type (Homo sapiens) (UniProt P05129); assay: Inhibition of recombinant full-length human PKCgamma assessed as residual activity at 10 uM using histone H1 as substrate measured after 40 mins in presence of [gamma33P]ATP by scintillation counting method
[21] = molecular target: Serine/threonine-protein kinase MAK (Homo sapiens) (UniProt P20794); assay: Inhibition of recombinant full-length human MAK assessed as residual activity at 10 uM using RRRFRPASPLRGPPK as substrate measured after 120 mins in presence of [gamma33P]ATP by scintillation counting method

Sequence of Serine/threonine-protein kinase DCLK3 (Homo sapiens) (Q9C098 whole entry, the tested form may be a part): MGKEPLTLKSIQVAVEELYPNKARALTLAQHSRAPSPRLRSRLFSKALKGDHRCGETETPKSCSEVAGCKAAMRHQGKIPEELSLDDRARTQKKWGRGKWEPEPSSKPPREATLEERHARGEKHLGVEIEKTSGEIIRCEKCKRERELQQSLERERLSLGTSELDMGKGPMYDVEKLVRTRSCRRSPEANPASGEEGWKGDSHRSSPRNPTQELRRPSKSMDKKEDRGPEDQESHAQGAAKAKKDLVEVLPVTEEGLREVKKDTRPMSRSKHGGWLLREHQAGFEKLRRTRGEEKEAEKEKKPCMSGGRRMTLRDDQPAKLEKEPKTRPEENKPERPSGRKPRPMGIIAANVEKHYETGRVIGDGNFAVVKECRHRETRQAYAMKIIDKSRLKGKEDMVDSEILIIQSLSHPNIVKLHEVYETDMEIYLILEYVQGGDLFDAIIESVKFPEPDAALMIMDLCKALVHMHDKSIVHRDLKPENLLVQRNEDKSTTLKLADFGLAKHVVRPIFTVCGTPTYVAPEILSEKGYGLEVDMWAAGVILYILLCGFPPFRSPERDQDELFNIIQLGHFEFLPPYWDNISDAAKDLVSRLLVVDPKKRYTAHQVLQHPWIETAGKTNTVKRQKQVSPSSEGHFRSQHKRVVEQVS
Sequence of Myosin light chain kinase, smooth muscle (Homo sapiens) (Q15746 whole entry, the tested form may be a part): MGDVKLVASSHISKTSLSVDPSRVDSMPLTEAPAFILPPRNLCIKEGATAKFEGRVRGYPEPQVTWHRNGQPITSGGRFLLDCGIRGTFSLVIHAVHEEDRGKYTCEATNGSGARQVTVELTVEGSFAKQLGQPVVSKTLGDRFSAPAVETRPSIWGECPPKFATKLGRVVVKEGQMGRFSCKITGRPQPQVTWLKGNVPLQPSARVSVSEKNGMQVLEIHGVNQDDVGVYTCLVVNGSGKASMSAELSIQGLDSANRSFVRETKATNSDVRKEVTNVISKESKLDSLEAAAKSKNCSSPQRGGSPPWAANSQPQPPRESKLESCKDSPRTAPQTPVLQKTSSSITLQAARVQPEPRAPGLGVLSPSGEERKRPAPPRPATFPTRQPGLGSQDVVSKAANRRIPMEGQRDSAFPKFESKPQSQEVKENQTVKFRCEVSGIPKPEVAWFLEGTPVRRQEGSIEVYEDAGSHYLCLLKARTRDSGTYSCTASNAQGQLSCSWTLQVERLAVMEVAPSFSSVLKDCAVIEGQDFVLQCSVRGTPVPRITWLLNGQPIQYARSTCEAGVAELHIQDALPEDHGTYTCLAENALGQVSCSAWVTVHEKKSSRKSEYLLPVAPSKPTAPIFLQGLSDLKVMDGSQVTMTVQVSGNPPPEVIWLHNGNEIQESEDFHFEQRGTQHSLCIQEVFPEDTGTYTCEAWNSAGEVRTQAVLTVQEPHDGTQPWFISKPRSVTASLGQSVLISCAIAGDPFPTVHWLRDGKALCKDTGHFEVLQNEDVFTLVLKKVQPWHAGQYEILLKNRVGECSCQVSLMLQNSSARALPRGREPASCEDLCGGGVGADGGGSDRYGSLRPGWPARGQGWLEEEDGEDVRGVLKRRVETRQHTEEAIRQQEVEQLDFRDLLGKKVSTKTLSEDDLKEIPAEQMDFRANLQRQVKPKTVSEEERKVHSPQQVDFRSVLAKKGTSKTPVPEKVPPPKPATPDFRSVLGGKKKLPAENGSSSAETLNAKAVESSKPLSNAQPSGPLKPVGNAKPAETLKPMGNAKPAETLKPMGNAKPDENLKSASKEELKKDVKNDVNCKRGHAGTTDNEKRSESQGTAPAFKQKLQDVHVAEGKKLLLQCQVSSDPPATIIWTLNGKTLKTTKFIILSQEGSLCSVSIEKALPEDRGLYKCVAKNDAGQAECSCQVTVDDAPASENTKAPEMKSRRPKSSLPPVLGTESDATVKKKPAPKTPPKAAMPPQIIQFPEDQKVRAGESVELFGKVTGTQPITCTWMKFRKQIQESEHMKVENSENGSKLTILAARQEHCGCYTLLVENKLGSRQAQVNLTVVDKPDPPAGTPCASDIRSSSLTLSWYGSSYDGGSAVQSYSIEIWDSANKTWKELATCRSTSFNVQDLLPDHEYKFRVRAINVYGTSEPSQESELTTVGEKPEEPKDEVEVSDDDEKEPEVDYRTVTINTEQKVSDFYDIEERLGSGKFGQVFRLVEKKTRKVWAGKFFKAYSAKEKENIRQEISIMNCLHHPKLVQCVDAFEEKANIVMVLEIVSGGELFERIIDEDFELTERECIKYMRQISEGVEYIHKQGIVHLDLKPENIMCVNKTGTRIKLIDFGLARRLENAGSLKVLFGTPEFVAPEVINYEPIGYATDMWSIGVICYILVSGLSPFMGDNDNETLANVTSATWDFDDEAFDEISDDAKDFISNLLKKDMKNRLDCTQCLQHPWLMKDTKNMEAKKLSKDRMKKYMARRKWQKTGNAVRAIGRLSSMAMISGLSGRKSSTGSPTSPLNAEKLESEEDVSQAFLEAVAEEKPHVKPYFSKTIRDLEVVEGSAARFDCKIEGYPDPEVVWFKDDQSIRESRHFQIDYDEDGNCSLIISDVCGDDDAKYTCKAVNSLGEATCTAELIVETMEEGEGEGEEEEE
Sequence of Homeodomain-interacting protein kinase 1 (Homo sapiens) (Q86Z02 whole entry, looked up, the tested form may be a part): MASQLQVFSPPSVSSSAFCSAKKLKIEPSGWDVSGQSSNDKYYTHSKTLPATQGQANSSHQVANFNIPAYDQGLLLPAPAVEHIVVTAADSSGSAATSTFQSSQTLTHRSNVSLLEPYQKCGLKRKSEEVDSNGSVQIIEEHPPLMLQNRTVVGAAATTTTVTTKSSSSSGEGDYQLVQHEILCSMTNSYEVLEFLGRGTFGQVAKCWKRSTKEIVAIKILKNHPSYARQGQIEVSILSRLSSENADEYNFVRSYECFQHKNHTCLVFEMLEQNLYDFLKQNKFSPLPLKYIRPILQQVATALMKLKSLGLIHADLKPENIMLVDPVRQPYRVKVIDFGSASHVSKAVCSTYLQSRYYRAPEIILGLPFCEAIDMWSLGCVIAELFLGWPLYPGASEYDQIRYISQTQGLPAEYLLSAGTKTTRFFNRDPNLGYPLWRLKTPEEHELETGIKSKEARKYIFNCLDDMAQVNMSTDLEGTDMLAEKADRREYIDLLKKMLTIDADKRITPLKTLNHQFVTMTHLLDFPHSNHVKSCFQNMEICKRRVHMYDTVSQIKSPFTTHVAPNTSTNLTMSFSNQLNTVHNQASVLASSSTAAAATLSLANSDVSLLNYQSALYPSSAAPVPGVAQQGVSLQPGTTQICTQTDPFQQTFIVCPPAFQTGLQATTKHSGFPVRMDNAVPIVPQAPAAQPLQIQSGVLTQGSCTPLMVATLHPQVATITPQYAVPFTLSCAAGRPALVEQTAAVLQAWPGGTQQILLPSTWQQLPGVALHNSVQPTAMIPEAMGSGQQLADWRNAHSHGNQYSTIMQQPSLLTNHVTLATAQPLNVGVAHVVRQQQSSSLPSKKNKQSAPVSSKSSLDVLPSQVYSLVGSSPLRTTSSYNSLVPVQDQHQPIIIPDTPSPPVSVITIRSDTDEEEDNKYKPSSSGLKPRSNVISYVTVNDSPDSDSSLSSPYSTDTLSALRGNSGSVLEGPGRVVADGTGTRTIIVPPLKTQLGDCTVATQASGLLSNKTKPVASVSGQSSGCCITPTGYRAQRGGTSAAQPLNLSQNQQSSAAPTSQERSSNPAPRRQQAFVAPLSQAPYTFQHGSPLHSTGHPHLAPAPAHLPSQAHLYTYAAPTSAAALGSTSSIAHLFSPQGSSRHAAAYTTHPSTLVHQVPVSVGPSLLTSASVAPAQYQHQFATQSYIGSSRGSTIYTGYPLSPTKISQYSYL
Sequence of Proto-oncogene tyrosine-protein kinase receptor Ret (Homo sapiens), P07949 [V804L] (P07949 whole entry V804L): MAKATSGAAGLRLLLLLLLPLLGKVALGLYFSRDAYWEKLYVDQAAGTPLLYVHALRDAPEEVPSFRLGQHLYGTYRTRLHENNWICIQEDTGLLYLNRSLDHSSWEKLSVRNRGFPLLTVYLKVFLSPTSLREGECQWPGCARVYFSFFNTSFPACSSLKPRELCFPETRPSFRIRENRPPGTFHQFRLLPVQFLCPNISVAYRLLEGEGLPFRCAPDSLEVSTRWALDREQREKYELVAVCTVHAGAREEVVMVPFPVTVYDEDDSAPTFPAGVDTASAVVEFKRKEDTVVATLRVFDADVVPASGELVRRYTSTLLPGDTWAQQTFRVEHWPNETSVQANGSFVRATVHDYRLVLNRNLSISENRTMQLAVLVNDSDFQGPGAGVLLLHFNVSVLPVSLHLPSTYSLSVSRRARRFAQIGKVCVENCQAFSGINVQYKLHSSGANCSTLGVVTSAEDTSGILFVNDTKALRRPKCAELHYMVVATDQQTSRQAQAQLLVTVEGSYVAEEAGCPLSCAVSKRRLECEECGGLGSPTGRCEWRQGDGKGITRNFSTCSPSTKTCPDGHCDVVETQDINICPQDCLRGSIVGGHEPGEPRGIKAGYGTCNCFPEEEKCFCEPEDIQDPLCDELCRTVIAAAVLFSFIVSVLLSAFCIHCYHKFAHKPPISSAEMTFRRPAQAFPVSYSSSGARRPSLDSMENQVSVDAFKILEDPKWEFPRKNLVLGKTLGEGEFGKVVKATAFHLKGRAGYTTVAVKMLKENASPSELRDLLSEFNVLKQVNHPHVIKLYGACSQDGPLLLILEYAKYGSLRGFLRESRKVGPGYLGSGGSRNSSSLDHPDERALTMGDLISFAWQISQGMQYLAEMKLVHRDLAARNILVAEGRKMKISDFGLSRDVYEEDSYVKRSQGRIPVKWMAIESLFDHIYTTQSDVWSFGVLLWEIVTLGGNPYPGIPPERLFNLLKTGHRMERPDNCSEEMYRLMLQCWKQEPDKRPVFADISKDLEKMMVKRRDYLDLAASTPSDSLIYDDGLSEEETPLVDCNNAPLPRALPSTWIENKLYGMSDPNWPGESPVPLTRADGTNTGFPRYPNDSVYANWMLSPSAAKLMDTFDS

In the case of Cc1cc(C)c(CNc2nc(Cl)nc3c2ncn3C2CCCC2)c(=O)[nH]1, the Activity [1] is reported as 97%, the Activity [2] is reported as 104% and the Activity [3] is reported as “Non-Toxic”. For the same compound, the Activity [4] was 100%, the Activity [5] was 98.5% and the Activity (Homo sapiens) was 109%. The Activity [6] was 94%, the Activity [7] was 104% and the Activity [8] was 108%. The Activity [9] was 103%, the Activity (HCT-116) was 7.59% and the Activity [10] was 106%. The Activity [11] was 117%, the Activity [12] was 102% and the Activity [13] was 98.5%. The Activity [14] was 95%, the Activity [15] was 110% and the Activity [16] was 104%. It also gave an Activity [17] of 106%, an Activity [18] of 132% and an Activity [19] of 128%. The Activity [20] was 108% and the Activity [21] was 106%.
